Measured values published in patent US9227971B2, “Pyrazolo[1,5-a]pyrimidine compounds as mTOR inhibitors” (Merck Sharp & Dohme Corp., priority 2010, dated 2016).
Where two headings read alike, the source gives them in different places.

Legend:
[1] = tested on: phosphorylated AKT Ser473 (pAKT S473), mTORC2 activity, PC3 cells; experiment: mTOR target engagement assay, immunofluorescent cell-based, pAKT S473 readout (mTORC2 activity)
Method in brief: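 After blocking, cells were stained overnight at 4 °C with anti-pAKT S473 antibody, then a fluorescent secondary; inhibition was read as reduced fluorescence intensity.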

[2] = tested on: phosphorylated 4E-BP1 Thr37/46 (p4E-BP1 Thr37/46), mTORC1 activity, PC3 cells; experiment: mTOR target engagement assay, immunofluorescent cell-based, p4E-BP1 Thr37/46 readout (mTORC1 activity); settings: Homo sapiens, read-out: p4E-BP1 Thr37/46 IC50
Method in brief: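 PTEN-mutant PC3 prostate cells were treated with serially diluted compound in 5% FBS F12 medium (0.25% DMSO) for ninety minutes at 37° C, glyoxal-fixed, then immunostained overnight at 4° C for p4E-BP1 Thr37/46 with an Alexa Fluor 488 secondary. IC50 came from four-parameter fits of fluorescence, DMSO-only wells defining 100%.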

[3] = Homo sapiens, PC-3, PC3 cells, compound treatment ninety minutes at 37° C.
[4] = PC-3, PC3 cells, compound treatment ninety minutes at 37° C.
[5] = Homo sapiens, PC-3, Table 3-1, PC3 cells
[6] = Homo sapiens, PC-3, Table 6-1, PC3 cells

SMILES	IC50 [1, 3]	IC50 [2, 4]	IC50 [1, 5]	IC50 ([2]; PC-3, Table 3-1, PC3 cells)	other results
CC(=O)c1c([C@@H]2C[C@H]3CC[C@@H](C2)N3C(=O)c2nnc[nH]2)nc2c(-c3ccc(-c4ccc(F)cc4F)nc3)cnn2c1N [Compound 1.1.148, 1-(5-((1R,3s,5S)-8-(4H-1,2,4-triazole-3-carbonyl)-8-azabicyclo[3.2.1]octan-3-yl)-7-amino-3-(6-(2,4-difluorophenyl)pyridin-3-yl)pyrazolo[1,5-a]pyrimidin-6-yl)ethanone]	1 to 100 nM	1 to 100 nM	–	–	–
CC(=O)c1c([C@@H]2C[C@H]3CC[C@@H](C2)N3C(=O)CO)nc2c(-c3ccc(-c4ccc(F)cc4)nc3)cnn2c1N [Compound 1.1.159, 1-((1R,3s,5S)-3-(6-acetyl-7-amino-3-(6-(4-fluorophenyl)pyridin-3-yl)pyrazolo[1,5-a]pyrimidin-5-yl)-8-azabicyclo[3.2.1]octan-8-yl)-2-hydroxyethanone]	100 to 1000 nM	100 to 1000 nM	–	–	–
CC(=O)c1c([C@@H]2C[C@H]3CC[C@@H](C2)N3C(=O)c2nnc[nH]2)nc2c(-c3ccc(-n4cc(C)cn4)nc3)cnn2c1N [Compound 1.1.135, 1-(5-((1R,3s,5S)-8-(4H-1,2,4-triazole-3-carbonyl)-8-azabicyclo[3.2.1]octan-3-yl)-7-amino-3-(6-(4-methyl-1H-pyrazol-1-yl)pyridin-3-yl)pyrazolo[1,5-a]pyrimidin-6-yl)ethanone]	1 to 100 nM	1 to 100 nM	–	–	–
CS(=O)(=O)c1c([C@@H]2C[C@H]3CC[C@@H](C2)N3C(=O)C(F)(F)F)nc2c(-c3ccc(-c4ccccc4)nc3)cnn2c1N [Compound 3.91, 1-((1R,3s,5S)-3-(7-amino-6-(methylsulfonyl)-3-(6-phenylpyridin-3-yl)pyrazolo[1,5-a]pyrimidin-5-yl)-8-azabicyclo[3.2.1]octan-8-yl)-2,2,2-trifluoroethanone]	–	–	1000 to 10000 nM	1000 to 10000 nM	–
CC(=O)c1c([C@@H]2C[C@H]3CC[C@@H](C2)N3C(=O)[C@@H](C)O)nc2c(-c3ccc(-c4ncc[nH]4)nc3)cnn2c1N [Compound 6.12, (R)-1-((1R,3S,5S)-3-(3-(6-(1H-imidazol-2-yl)pyridin-3-yl)-6-acetyl-7-aminopyrazolo[1,5-a]pyrimidin-5-yl)-8-azabicyclo[3.2.1]octan-8-yl)-2-hydroxypropan-1-one]	–	–	–	–	IC50 [1, 6]: 1 to 100 nM; IC50 ([2]; PC-3, Table 6-1, PC3 cells): 1 to 100 nM
CS(=O)(=O)c1c([C@H]2CC3CC[C@H](C2)N3C(=O)c2nnc[nH]2)nc2c(-c3ccc(C4CCCC4)nc3)cnn2c1N [Compound 3.166, ((1R,3s,5S)-3-(7-amino-3-(6-cyclopentylpyridin-3-yl)-6-(methylsulfonyl)pyrazolo[1,5-a]pyrimidin-5-yl)-8-azabicyclo[3.2.1]octan-8-yl)(4H-1,2,4-triazol-3-yl)methanone]	–	–	100 to 1000 nM	100 to 1000 nM	–
CC(=O)c1c([C@@H]2C[C@H]3CC[C@@H](C2)N3C(=O)c2nnc[nH]2)nc2c(-c3cnc4c(c3)CCCC4O)cnn2c1N (stereo partly drawn) [Compound 7.58, 1-(5-((1R,3s,5S)-8-(4H-1,2,4-triazole-3-carbonyl)-8-azabicyclo[3.2.1]octan-3-yl)-7-amino-3-(8-hydroxy-5,6,7,8-tetrahydroquinolin-3-yl)pyrazolo[1,5-a]pyrimidin-6-yl)ethanone]	–	–	–	–	IC50 ([1]; PC3 cells): 1 to 100 nM; IC50 ([2]; PC-3, PC3 cells): 1 to 100 nM
COc1ccc(-c2ccc(-c3cnn4c(N)c(C(C)=O)c([C@@H]5C[C@H]6CC[C@@H](C5)N6C(=O)c5nnc(N)[nH]5)nc34)cn2)cc1F [Compound 1.1.144, 1-(7-amino-5-((1R,3s,5S)-8-(5-amino-4H-1,2,4-triazole-3-carbonyl)-8-azabicyclo[3.2.1]octan-3-yl)-3-(6-(3-fluoro-4-methoxyphenyl)pyridin-3-yl)pyrazolo[1,5-a]pyrimidin-6-yl)ethanone]	1 to 100 nM	1 to 100 nM	–	–	–
CC(=O)c1c([C@@H]2C[C@H]3CC[C@@H](C2)N3C(=O)c2nnc[nH]2)nc2c(-c3ccc(-c4c(F)cccc4F)nc3)cnn2c1N [Compound 1.1.147, 1-(5-((1R,3s,5S)-8-(4H-1,2,4-triazole-3-carbonyl)-8-azabicyclo[3.2.1]octan-3-yl)-7-amino-3-(6-(2,6-difluorophenyl)pyridin-3-yl)pyrazolo[1,5-a]pyrimidin-6-yl)ethanone]	1 to 100 nM	1 to 100 nM	–	–	–
CC(=O)c1c([C@@H]2C[C@H]3CC[C@@H](C2)N3C(=O)c2nnc[nH]2)nc2c(-c3cnc(C(C)O)s3)cnn2c1N (stereo partly drawn) [Compound 7.36, 1-(5-((1R,3s,5S)-8-(4H-1,2,4-triazole-3-carbonyl)-8-azabicyclo[3.2.1]octan-3-yl)-7-amino-3-(2-(1-hydroxyethyl)thiazol-5-yl)pyrazolo[1,5-a]pyrimidin-6-yl)ethanone]	1000 to 10000 nM	1000 to 10000 nM	–	–	–
CC(=O)c1c([C@@H]2C[C@H]3CC[C@@H](C2)N3C(=O)CO)nc2c(-c3ccc(-c4cccc(F)c4)nc3)cnn2c1N [Compound 1.1.105, 1-((1R,3r,5S)-3-(6-acetyl-7-amino-3-(6-(3-fluorophenyl)pyridin-3-yl)pyrazolo[1,5-a]pyrimidin-5-yl)-8-azabicyclo[3.2.1]octan-8-yl)-2-hydroxyethanone]	100 to 1000 nM	100 to 1000 nM	–	–	–
CC(=O)c1c([C@@H]2C[C@H]3CC[C@@H](C2)N3C(=O)c2nnc[nH]2)nc2c(-c3ccc([C@H](O)C(F)(F)F)nc3)cnn2c1N [Compound 7.74, 1-(5-((1R,3s,5S)-8-(4H-1,2,4-triazole-3-carbonyl)-8-azabicyclo[3.2.1]octan-3-yl)-7-amino-3-(6-((S)-2,2,2-trifluoro-1-hydroxyethyl)pyridin-3-yl)pyrazolo[1,5-a]pyrimidin-6-yl)ethanone]	–	–	–	–	IC50 ([1]; Homo sapiens, PC-3, PC3 cells): 100 to 1000 nM; IC50 ([2]; PC-3, PC3 cells): 100 to 1000 nM
CS(=O)(=O)c1c([C@@H]2C[C@H]3CC[C@@H](C2)N3C(=O)c2nnc[nH]2)nc2c(-c3ccc(-n4cccn4)nc3)cnn2c1N [Compound 3.150, ((1R,3s,5S)-3-(3-(6-(1H-pyrazol-1-yl)pyridin-3-yl)-7-amino-6-(methylsulfonyl)pyrazolo[1,5-a]pyrimidin-5-yl)-8-azabicyclo[3.2.1]octan-8-yl)(4H-1,2,4-triazol-3-yl)methanone]	–	–	1 to 100 nM	1 to 100 nM	–
CS(=O)(=O)c1c([C@@H]2C[C@H]3CC[C@@H](C2)N3C(=O)c2ccn[nH]2)nc2c(-c3cn[nH]c3)cnn2c1N [Compound 3.117, ((1R,3a,4S)-3-(7-amino-6-(methylsulfonyl)-3-(1H-pyrazol-4-yl)pyrazolo[1,5-a]pyrimidin-5-yl)-8-azabicyclo[3.2.1]octan-8-yl)(1H-pyrazol-5-yl)methanone]	–	–	> 10000 nM	> 10000 nM	–
CS(=O)(=O)c1c([C@H]2CC3CC[C@H](C2)N3C(=O)c2cn[nH]n2)nc2c(-c3cnc(-c4ccccc4)cn3)cnn2c1N [Compound 3.175]	–	–	1000 to 10000 nM	1000 to 10000 nM	–
CC(=O)c1c([C@@H]2C[C@H]3CC[C@@H](C2)N3C(=O)c2cc[nH]c2)nc2c(-c3ccc(-c4ncc[nH]4)nc3)cnn2c1N [Compound 6.11, 1-(3-(6-(1H-imidazol-2-yl)pyridin-3-yl)-5-((1R,3s,5S)-8-(1H-pyrrole-3-carbonyl)-8-azabicyclo[3.2.1]octan-3-yl)-7-aminopyrazolo[1,5-a]pyrimidin-6-yl)ethanone]	–	–	–	–	IC50 [1, 6]: 1 to 100 nM; IC50 ([2]; PC-3, Table 6-1, PC3 cells): 1 to 100 nM
